Assays:
[1] = test system: Amaranthus retroflexus; test: Pre-emergence herbicidal effect; assay type: in vivo; conditions: Dosage 320 (0.32 kg active substance per hectare); visual scoring after 3 weeks vs untreated controls; 100% = plants have died
Source text: (§1) Seeds of monocotyledonous or dicotyledonous weed plants or crop plants are planted in wood-fiber pots in sandy loam and covered with earth. The compounds according to the invention, formulated in the form of wettable powders (WP) or as emulsion concentrates (EC), are then applied as aqueous suspension or emulsion at a water application rate of 600 to 800 I/ha (converted) with the addition of 0.2% of wetting agent to the surface of the covering earth. Following the treatment, the pots are placed in a greenhouse and kept under good growth conditions for the test plants. The visual scoring of the damage on the test plants is carried out after an experiment time of 3 weeks in comparison with untreated controls (herbicidal effect in percent (%): 100% effect=plants have died, 0% effect=as control plants). [table]

[2] = test system: Veronica persica; test: Pre-emergence herbicidal effect; assay type: in vivo; conditions: Dosage 320 (0.32 kg active substance per hectare); visual scoring after 3 weeks vs untreated controls; 100% = plants have died
Source text: as §1

[3] = test system: Polygonum convolvulus; test: Pre-emergence herbicidal effect; assay type: in vivo; conditions: Dosage 320 (0.32 kg active substance per hectare); visual scoring after 3 weeks vs untreated controls; 100% = plants have died
Source text: as §1

[4] = test system: Alopecurus myosuroides; test: Pre-emergence herbicidal effect; assay type: in vivo; conditions: Dosage 320 (0.32 kg active substance per hectare); visual scoring after 3 weeks vs untreated controls; 100% = plants have died
Source text: as §1

[5] = test system: Cyperus esculentus; test: Pre-emergence herbicidal effect; assay type: in vivo; conditions: Dosage 320 (0.32 kg active substance per hectare); visual scoring after 3 weeks vs untreated controls; 100% = plants have died
Source text: as §1

[6] = test system: Lolium multiflorum; test: Pre-emergence herbicidal effect; assay type: in vivo; conditions: Dosage 320 (0.32 kg active substance per hectare); visual scoring after 3 weeks vs untreated controls; 100% = plants have died
Source text: as §1

[7] = test system: Setaria viridis; test: Pre-emergence herbicidal effect; assay type: in vivo; conditions: Dosage 320 (0.32 kg active substance per hectare); visual scoring after 3 weeks vs untreated controls; 100% = plants have died
Source text: as §1

[8] = test system: Abutilon theophrasti; test: Post-emergence herbicidal effect; assay type: in vivo; conditions: Dosage 320 (0.32 kg active substance per hectare); treated in one-leaf stage; visual scoring after ca. 3 weeks vs untreated controls; 100% = plants have died
Experimental: (§2) [table] 2. Post-emergence herbicidal effect and crop plant compatibility Seeds of monocotyledonous or dicotyledonous weed plants or crop plants are planted in wood-fiber pots in sandy loam, covered with earth and grown in a greenhouse under good growth conditions. 2 to 3 weeks after sowing, the test plants are treated in the one-leaf stage. The compounds according to the invention, formulated in the form of wettable powders (WP) or as emulsion concentrates (EC), are then sprayed onto the green plant parts as aqueous suspension or emulsion at a water application rate of 600 to 800 I/ha (converted) with the addition of 0.2% of wetting agent. After ca. 3 weeks' standing time of the test plants in the greenhouse under optimum growth conditions, the effect of the preparations is scored visually in comparison with untreated controls (herbicidal effect in percent (%): 100% effect=plants have died, 0% effect=as control plants).

[9] = test system: Amaranthus retroflexus; test: Post-emergence herbicidal effect; assay type: in vivo; conditions: Dosage 320 (0.32 kg active substance per hectare); treated in one-leaf stage; visual scoring after ca. 3 weeks vs untreated controls; 100% = plants have died
Experimental: as §2

[10] = test system: Chenopodium album; test: Post-emergence herbicidal effect; assay type: in vivo; conditions: Dosage 320 (0.32 kg active substance per hectare); treated in one-leaf stage; visual scoring after ca. 3 weeks vs untreated controls; 100% = plants have died
Experimental: as §2

[11] = test system: Matricaria inodora; test: Post-emergence herbicidal effect; assay type: in vivo; conditions: Dosage 320 (0.32 kg active substance per hectare); treated in one-leaf stage; visual scoring after ca. 3 weeks vs untreated controls; 100% = plants have died
Experimental: as §2

[12] = test system: Veronica persica; test: Post-emergence herbicidal effect; assay type: in vivo; conditions: Dosage 320 (0.32 kg active substance per hectare); treated in one-leaf stage; visual scoring after ca. 3 weeks vs untreated controls; 100% = plants have died
Experimental: as §2

[13] = test system: Echinochloa crus-galli; test: Pre-emergence herbicidal effect; assay type: in vivo; conditions: Dosage 320 (0.32 kg active substance per hectare); visual scoring after 3 weeks vs untreated controls; 100% = plants have died
Source text: as §1

[14] = test system: Matricaria inodora; test: Pre-emergence herbicidal effect; assay type: in vivo; conditions: Dosage 320 (0.32 kg active substance per hectare); visual scoring after 3 weeks vs untreated controls; 100% = plants have died
Source text: as §1

[15] = test system: Stellaria media; test: Pre-emergence herbicidal effect; assay type: in vivo; conditions: Dosage 320 (0.32 kg active substance per hectare); visual scoring after 3 weeks vs untreated controls; 100% = plants have died
Source text: as §1

[16] = test system: Viola tricolor; test: Pre-emergence herbicidal effect; assay type: in vivo; conditions: Dosage 320 (0.32 kg active substance per hectare); visual scoring after 3 weeks vs untreated controls; 100% = plants have died
Source text: as §1

[17] = test system: Echinochloa crus-galli; test: Post-emergence herbicidal effect; assay type: in vivo; conditions: Dosage 320 (0.32 kg active substance per hectare); treated in one-leaf stage; visual scoring after ca. 3 weeks vs untreated controls; 100% = plants have died
Experimental: as §2

[18] = test system: Pharbitis purpurea; test: Post-emergence herbicidal effect; assay type: in vivo; conditions: Dosage 320 (0.32 kg active substance per hectare); treated in one-leaf stage; visual scoring after ca. 3 weeks vs untreated controls; 100% = plants have died
Experimental: as §2

[19] = test system: Polygonum convolvulus; test: Post-emergence herbicidal effect; assay type: in vivo; conditions: Dosage 320 (0.32 kg active substance per hectare); treated in one-leaf stage; visual scoring after ca. 3 weeks vs untreated controls; 100% = plants have died
Experimental: as §2

[20] = test system: Setaria viridis; test: Post-emergence herbicidal effect; assay type: in vivo; conditions: Dosage 320 (0.32 kg active substance per hectare); treated in one-leaf stage; visual scoring after ca. 3 weeks vs untreated controls; 100% = plants have died
Experimental: as §2

[21] = test system: Viola tricolor; test: Post-emergence herbicidal effect; assay type: in vivo; conditions: Dosage 320 (0.32 kg active substance per hectare); treated in one-leaf stage; visual scoring after ca. 3 weeks vs untreated controls; 100% = plants have died
Experimental: as §2

[22] = logp (HCOOH), chemicophysical data; conditions: HCOOH (formic acid)
[23] = test system: Lolium multiflorum; test: Post-emergence herbicidal effect; assay type: in vivo; conditions: Dosage 320 (0.32 kg active substance per hectare); treated in one-leaf stage; visual scoring after ca. 3 weeks vs untreated controls; 100% = plants have died
Experimental: as §2

[24] = test system: Stellaria media; test: Post-emergence herbicidal effect; assay type: in vivo; conditions: Dosage 320 (0.32 kg active substance per hectare); treated in one-leaf stage; visual scoring after ca. 3 weeks vs untreated controls; 100% = plants have died
Experimental: as §2

Row | Structure (SMILES) | Pre-emergence herbicidal effect AMARE [1] [%] | Pre-emergence herbicidal effect VERPE [2] [%] | Pre-emergence herbicidal effect POLCO [3] [%] | Pre-emergence herbicidal effect ALOMY [4] [%] | Pre-emergence herbicidal effect LOLMU [6] [%] | Pre-emergence herbicidal effect SETVI [7] [%] | Post-emergence herbicidal effect ABUTH [8] [%] | Post-emergence herbicidal effect AMARE [9] [%] | Post-emergence herbicidal effect VERPE [12] [%] | Pre-emergence herbicidal effect ECHCG [13] [%] | Pre-emergence herbicidal effect VIOTR [16] [%] | Post-emergence herbicidal effect ECHCG [17] [%] | Post-emergence herbicidal effect PHBPU [18] [%] | Post-emergence herbicidal effect VIOTR [21] [%] | also measured
1 | Cc1cc(C)c2c(c1)C(Nc1cc(C(F)(F)F)nc(N)n1)CCC2 (racemic) [Example 1.17] | 100 | 100 |  |  |  |  |  |  |  |  |  |  |  |  | 
2 | Nc1nc(NC2CCc3ccccc32)cc(C(F)(F)F)n1 (racemic) [Example 1.18] | 100 | 100 | 100 |  |  |  |  |  |  |  |  |  |  |  | 
3 | Cc1ccc2c(c1)C(Nc1cc(C(F)(F)F)nc(N)n1)C(C)C2 (racemic) [Example 1.31] |  |  | 100 | 100 | 80 | 100 | 90 | 100 | 90 |  |  |  |  |  | Pre-emergence herbicidal effect CYPES [5]: 100%; Post-emergence herbicidal effect CHEAL [10]: 80%; Post-emergence herbicidal effect MATIN [11]: 90%
4 | Cc1ccc2c(c1)[C@H](Nc1cc(C(F)(F)F)nc(N)n1)[C@@H](C)C2 [Example 1.27, N4-[(1R,2S)-2,6-dimethyl-2,3-dihydro-1H-inden-1-yl]-6-(trifluoromethyl)pyrimidine-2,4-diamine] | 100 | 100 | 100 |  | 80 | 100 | 90 | 100 | 85 | 100 | 100 | 85 | 85 | 85 | Pre-emergence herbicidal effect MATIN [14]: 100%; Pre-emergence herbicidal effect STEME [15]: 100%; Post-emergence herbicidal effect POLCO [19]: 80%; Post-emergence herbicidal effect SETVI [20]: 80%; chromatographic logP [22]: 2.77
5 | Cc1ccc2c(c1)[C@H](Nc1cc(C(F)F)nc(N)n1)[C@@H](C)C2 [Example 1.30] | 100 | 100 | 100 | 100 | 100 | 100 | 85 | 95 | 90 | 100 | 100 | 87 | 90 | 85 | Pre-emergence herbicidal effect MATIN [14]: 100%; Pre-emergence herbicidal effect STEME [15]: 100%; Post-emergence herbicidal effect LOLMU [23]: 80%; Post-emergence herbicidal effect SETVI [20]: 80%; Post-emergence herbicidal effect STEME [24]: 80%
6 | Nc1nc(N[C@@H]2CCCc3ccccc32)cc(C(F)F)n1 [Example 1.35] | 100 | 100 | 100 | 80 | 100 | 90 |  | 90 |  | 80 | 100 |  | 80 | 80 | 
7 | Nc1nc(N[C@@H]2CCc3ccccc32)cc(C(F)F)n1 [Example 1.36] |  |  |  |  |  |  | 80 | 100 | 90 |  |  | 90 | 80 | 90 | Post-emergence herbicidal effect LOLMU [23]: 90%
8 | Cc1ccc2c(c1)[C@H](Nc1cc(Cl)nc(N)n1)[C@@H](C)C2 [Example 1.42] | 100 | 100 | 100 | 100 |  | 100 |  | 100 | 80 | 100 | 100 | 90 | 100 | 90 | Pre-emergence herbicidal effect MATIN [14]: 100%; Pre-emergence herbicidal effect STEME [15]: 100%; Post-emergence herbicidal effect POLCO [19]: 80%; Post-emergence herbicidal effect SETVI [20]: 80%
9 | Nc1nc(Cl)cc(N[C@@H]2CCc3ccccc32)n1 [Example 1.44] | 100 | 100 | 100 |  |  |  |  |  |  |  | 100 |  |  |  | 
10 | N#Cc1c(N[C@@H]2CCCc3ccccc32)nc(N)nc1-c1ccccc1 [Example 1.53, 2-Amino-4-phenyl-6-[(1R)-1,2,3,4-tetrahydronaphthalen-1-ylamino]pyrimidine-5-carbonitrile] |  |  |  |  |  |  |  |  |  |  |  |  |  |  | chromatographic logP [22]: 2.87
11 | Nc1ncc(C(F)(F)F)c(N[C@@H]2CCCc3ccccc32)n1 [Example 1.60, N4-[(1R)-1,2,3,4-tetrahydronaphthalen-1-yl]-5-(trifluoromethyl)pyrimidine-2,4-diamine] |  |  |  |  |  |  |  |  |  |  |  |  |  |  | melting point: 120 to 121 °C
